Measurements from patent US20090274773A1, “ANTIPROLIFERATIVE COMBINATION COMPRISING CYC-682 AND A CYTOTOXIC AGENT” (Cyclacel Limited, priority 2005, published 2009).

Legend:
Assay type in all cases: cell-based, human
[1] = tested on: COLO205 cancer cell line; assay: CYC682 drug-combination study (MTT, Chou and Talalay combination index, isobolograms)
Description: (§1) For simultaneous drug exposure, cells were seeded at 2×10^3 cells/well in 96-well plates and treated 24 hours later with increasing concentrations of CYC682 alone or with various concentrations of another drug corresponding to the IC20, IC40 or IC60 values. After approximately four doubling times (120 hours), the growth inhibitory effect was measured by the MTT assay.
(§2) Cells were seeded at 2×10^3 cells/well in 96-well plates and allowed to grow for 24 hour. Cells were then exposed to various concentrations of the first drug for 1 hour/24 hours/48 hours, the drug was removed, the cells were washed and the second drug was added. After additional drug exposure, the second drug was removed, the cells were washed and incubated in drug-free medium for 72 hours. Growth inhibition was then determined by the MTT assay.
(§3) Effects of drug combinations were evaluated using the Chou and Talalay method which is based on the median-effect principle (Chou T C, Talalay P. Quantitative analysis of dose-effect relationships: the combined effects of multiple drugs or enzyme inhibitors. Adv Enzyme Regul. 1984; 22:27-55). […] On the basis of the slope of the curve for each drug in a combination, it can be determined whether the drugs have mutually nonexclusive effects (e.g., independent or interactive modes of action).
(§4) The combination index (CI) is then determined by the equation:
(§5) CI=[(C)1/(Cx)1]+[(C)2/(Cx)2]+[α(C)1(C)2/(Cx)1(Cx)2],
(§6) where (Cx)1 is the concentration of drug 1 required to produce an x percent effect of that drug alone, and (C)1, the concentration of drug 1 required to produce the same x percent effect in combination with (C)2. If the mode of action of the drugs is mutually exclusive or nonexclusive, then α is 0 or 1, respectively. CI values will be calculated with this equation using different values of fa (i.e., for different degrees of cell growth inhibition). CI values of <1 indicate synergy, the value of 1 indicates additive effects, and values >1 indicate antagonism. Data were analyzed on an IBM-PC computer using concentration-effect analysis for microcomputer software (Biosoft, Cambridge, UK). For statistical analysis and graphs we will use Instat and Prism software (GraphPad, San Diego, USA). The dose-effect relationships for the drugs tested, alone or in paired combinations, were subjected to median-effect plot analysis to determine their relative potency (IC50), shape (m), and conformity (r) in each selected cell line. As stated above, the IC50 and m values were respectively used to calculate synergism and antagonism on the basis of the CI equation. Results were expressed as the mean±standard deviation of at least 3 experiments performed in duplicate. In each experiment, cells were exposed to the paired combinations for 48 hours as described above. Means and standard deviations were compared using Student's t-test (two-sided p value).
(§7) The effect of sequential and simultaneous exposure (FIG. 2) to CYC682 with oxaliplatin, doxorubicin, docetaxel and gemcitabine was studied in two sensitive colon cancer cell lines—COLO205 and HCT116 using combination indices that represent an affected fraction for the concentration of drugs corresponding to IC50 as previously described by Chou and Talalay.

[2] = tested on: HCT116 cancer cell line; assay: as above
Description: as §1, §2, §3, §4, §5, §6, §7

[3] = tested on: NSCLC cell line H1299; assay: CNDAC combinations (alamar blue, Calcusyn Combination Index); details: for Interaction with CNDAC (in words), summary of Table 3: combination with CNDAC, regime not specified; for Combination Index at ED50, Concomitant / Combination Index at ED75, Concomitant / Combination Index at ED90, Concomitant: simultaneous treatment 72 h
Description: (§8) Experiments in the NSCLC cell lines H1299 or RERF-LC-MA were performed in 96-well plates, with cells seeded at a density of 3,000/well, in DMEM containing 10% (v/v) FCS. Stock solutions of all drugs were made up in dimethylsulfoxide (DMSO), with the exception of gemcitabine, which was dissolved in 0.9% (w/v) sterile saline solution.
For experimental assessment of potential synergistic interactions, the concomitant treatment regime involved simultaneous treatment of cells with CNDAC and the other agent under investigation for 72 h, alongside suitable controls of cells treated with the individual compounds alone for 72 hr. In the sequential treatment regimes, one drug was added to the cells 2 h after plating, and left for 24 h. Media was then aspirated, replaced with fresh media containing the second drug and incubated for 72 h. The two individual treatment controls for the sequential treatment regime involved substituting one of the drug treatments with drug-free media. […] Drug interactions were analysed using the Calcusyn software package (BioSoft, Cambridge, U.K.) described below.

[4] = tested on: NSCLC cell line RERF-LC-MA; assay: as above; details: named agent in combination with CNDAC, simultaneous treatment 72 h
Description: as §8
For experimental assessment of potential synergistic interactions, the concomitant treatment regime involved simultaneous treatment of cells with CNDAC and the other agent under investigation for 72 h, alongside suitable controls of cells treated with the individual compounds alone for 72 hr. In the sequential treatment regimes, one drug was added to the cells 2 h after plating, and left for 24 h. Media was then aspirated, replaced with fresh media containing the second drug and incubated for 72 h. The two individual treatment controls for the sequential treatment regime involved substituting one of the drug treatments with drug-free media. After drug treatment, the number of cells in each well was estimated by incubating for 1 h in media containing 10% alamar blue (Roche, Lewes, East Sussex, U.K.) and measuring the absorbance at 488-595 nm. Drug interactions were analysed using the Calcusyn software package (BioSoft, Cambridge, U.K.) described below. A Combination Index (C.I.) of 1 indicates an additive drug interaction, whereas a C.I. greater than 1 is antagonistic and a score lower than 1 is synergistic.

[5] = named agent in combination with CNDAC, H1299
[6] = named agent in combination with CNDAC, H1299, CNDAC 24 h then other agent 72 h
[7] = named agent in combination with CNDAC, H1299, named agent 24 h then CNDAC 72 h

Structure (SMILES) | Interaction with CYC682 (isobologram) ([1]; COLO205, named agent given prior to CYC682) | Interaction with CYC682 (isobologram) ([2]; HCT116, named agent given prior to CYC682) | Interaction with CNDAC (in words), summary of Table 3 [3] | Combination Index at ED50, Concomitant [3, 5] | Combination Index at ED75, Concomitant [3, 5] | Combination Index at ED90, Concomitant [3, 5] | Combination Index at ED50, Concomitant [4] | Combination Index at ED75, Concomitant [4] | Combination Index at ED90, Concomitant [4] | Interaction with CYC682 (isobologram) ([1]; COLO205 (FIG. 5), sequential exposure, at high concentrations) | Interaction with CYC682 (isobologram) ([2]; HCT116 (FIG. 5), sequential exposure, at high concentrations) | Interaction with CNDAC at ED50 (in words) ([3]; H1299, concomitant treatment) | Interaction with CNDAC at ED50 (in words) ([3]; H1299, pre-treatment with named agent) | Combination Index at ED75, CNDAC pretreatment [3, 6] | Combination Index at ED90, CNDAC pretreatment [3, 6] | Combination Index at ED50, CNDAC pretreatment ([3]; named agent in combination with CNDAC, H1299, CNDAC 24 h then other agent 72 h, C.I. <1 synergistic, 1 additive, >1 antagonistic) | Combination Index at ED50, Other (named agent) pretreatment [3, 7] | Combination Index at ED75, Other (named agent) pretreatment [3, 7] | Combination Index at ED90, Other (named agent) pretreatment [3, 7]
CC(=O)O[C@@]12CO[C@@H]1C[C@H](O)[C@@]1(C)C(=O)[C@H](O)C3=C(C)[C@@H](OC(=O)[C@H](O)[C@@H](NC(=O)OC(C)(C)C)c4ccccc4)C[C@@](O)([C@@H](OC(=O)c4ccccc4)[C@H]21)C3(C)C [Docetaxel] | synergistic effect | synergistic effect | synergistic drug interactions | 0.93 | 1.13 | 2.01 | 0.9 | 0.97 | 1.1 |  |  |  |  |  |  |  |  |  | 
COc1cccc2c1C(=O)c1c(O)c3c(c(O)c1C2=O)C[C@@](O)(C(=O)CO)C[C@@H]3O[C@H]1C[C@H](N)[C@H](O)[C@H](C)O1 [Doxorubicin] |  |  | synergistic drug interactions | 0.63 | 1.14 | 2.75 |  |  |  | synergistic | synergistic | synergy | synergy | 1.24 | 2.23 | 0.95 | 0.64 | 0.83 | 1.63
